# Experimental data reported in article PMC11089510 (Journal of Medicinal Chemistry, 2024).
# Where two headings read alike, the source gives them in different places.
# T1: recombinant human NUDT14 (Homo sapiens, UniProt O95848)
# T1 sequence (O95848 1-222): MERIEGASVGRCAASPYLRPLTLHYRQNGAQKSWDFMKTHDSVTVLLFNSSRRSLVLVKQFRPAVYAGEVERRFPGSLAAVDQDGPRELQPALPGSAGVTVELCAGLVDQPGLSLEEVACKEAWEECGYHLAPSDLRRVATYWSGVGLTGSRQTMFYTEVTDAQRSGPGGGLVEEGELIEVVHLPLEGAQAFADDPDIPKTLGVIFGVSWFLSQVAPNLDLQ
# T2: purified human NUDT14 protein (Homo sapiens, UniProt O95848)
# T2 construct: 6xHis tag followed by TEV site (N, cleaved yes); made in house; host or cells: Escherichia coli (DE3)
# T2 sequence (O95848 1-222): T1 sequence (O95848 1-222)
# T3: NUDT15 (Homo sapiens, UniProt Q9NV35)
# T3 sequence (Q9NV35 1-164): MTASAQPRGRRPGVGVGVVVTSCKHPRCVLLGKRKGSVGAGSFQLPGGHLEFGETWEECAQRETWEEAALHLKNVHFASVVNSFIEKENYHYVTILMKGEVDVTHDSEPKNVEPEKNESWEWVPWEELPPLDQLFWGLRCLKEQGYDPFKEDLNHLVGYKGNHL
# T4: NUDT9 (Homo sapiens, UniProt Q9BW91)
# T4 sequence (Q9BW91 1-350): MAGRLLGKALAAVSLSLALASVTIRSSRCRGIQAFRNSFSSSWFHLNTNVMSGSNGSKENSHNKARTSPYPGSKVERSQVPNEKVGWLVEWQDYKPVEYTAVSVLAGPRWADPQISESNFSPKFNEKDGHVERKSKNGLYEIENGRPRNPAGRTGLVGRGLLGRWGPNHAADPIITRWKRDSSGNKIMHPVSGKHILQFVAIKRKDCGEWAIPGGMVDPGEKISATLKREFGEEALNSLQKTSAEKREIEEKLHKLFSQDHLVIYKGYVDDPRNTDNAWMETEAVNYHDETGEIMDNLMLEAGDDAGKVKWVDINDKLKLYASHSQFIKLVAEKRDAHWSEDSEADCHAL
# T5: NUDT18 (Homo sapiens, UniProt Q6ZVK8)
# T5 sequence (Q6ZVK8 1-323): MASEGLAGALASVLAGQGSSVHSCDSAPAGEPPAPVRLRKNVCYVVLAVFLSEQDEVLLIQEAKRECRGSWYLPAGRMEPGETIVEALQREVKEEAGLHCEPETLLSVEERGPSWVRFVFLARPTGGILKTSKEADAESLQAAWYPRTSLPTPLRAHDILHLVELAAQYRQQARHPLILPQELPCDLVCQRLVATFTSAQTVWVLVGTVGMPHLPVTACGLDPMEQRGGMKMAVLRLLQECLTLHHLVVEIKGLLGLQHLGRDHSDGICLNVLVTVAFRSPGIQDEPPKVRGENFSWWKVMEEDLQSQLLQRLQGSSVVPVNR
# T6: NUDT17 (Homo sapiens, UniProt P0C025)
# T6 sequence (P0C025 1-328): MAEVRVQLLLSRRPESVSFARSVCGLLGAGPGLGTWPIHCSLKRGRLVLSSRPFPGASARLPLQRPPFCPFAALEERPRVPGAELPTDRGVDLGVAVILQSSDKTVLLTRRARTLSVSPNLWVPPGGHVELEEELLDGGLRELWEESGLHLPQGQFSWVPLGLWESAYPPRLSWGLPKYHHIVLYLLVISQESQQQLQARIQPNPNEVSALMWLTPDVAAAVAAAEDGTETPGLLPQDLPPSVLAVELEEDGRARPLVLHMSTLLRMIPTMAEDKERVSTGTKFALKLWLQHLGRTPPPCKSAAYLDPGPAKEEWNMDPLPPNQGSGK
# B1: NUDT14 (enzyme, human, UniProt O95848 1-222, looked up)
# chain: T1 sequence (O95848 1-222)
# Key:
# recombinant human NUDT14 = molecular target: T1, recombinant human NUDT14; test: NUDT14 catalytic assay (AMP-Glo); type: biochemical
# Experimental: (§1) Inhibition activities of the compounds were determined using AMP-Glo system (Promega). The compounds were diluted from 50 μM to 0 μM in a final reaction containing 20 mM HEPES, 100 mM NaCl, 0.5 mM TCEP, 1 mM MgCl2, and 0.1% BSA, pH 7.4. […] The final DMSO concentration was 1% for all reactions. […] The reactions were further incubated with 4 μL of the detection solution for 1 h at rt. Luminescence signals were then measured in a PHERAstar FSX plate reader. Experiments were done in triplicate sets, and data were analyzed by GraphPad Prism 9. Inhibitor dose–response data were normalized to reactions containing vehicle only (1% v/v DMSO, 100% activity) and reactions containing 500 nM TH5427 (6) (1% v/v DMSO, 0% activity). Data are represented as the mean ± SD of two independent biological replicates.
# [1] = molecular target: HiBiT-NUDT14 in intact HEK293 cells (Homo sapiens, UniProt O95848); test: HiBiT-NUDT14 cellular thermal shift assay (CETSA); type: cell-based
# Experimental: The Nano-Glo HiBiT lytic detection system was used following the manufacturer’s instructions (Promega). In brief, 400,000 HEK293 cells/mL were reverse-transfected with N-terminal HiBiT tagged NUDT14 using FuGENE transfection reagent (Promega). After 24 h of incubation, cells were trypsinized and resuspended at 400,000 cells/mL in assay medium. The cells were divided into compound and untreated (DMSO) groups and treated accordingly. Ten μL of cells were seeded into each well in a 384-well white PCR plate and incubated for 1 h. After incubation, the samples were heated in a PCR thermocycler at the desired temperature gradient. The plate was allowed to stand for 5 min at rt, and 10 μL of Nano-Glo HiBiT lytic mix was added into each well. The signals were measured in a PHERAstar FSX and analyzed by GraphPad Prism (v.9 or v.10).
# [2] = molecular target: NanoLuc-NUDT5 in HEK293 cells (Homo sapiens, UniProt Q9UKK9); test: NUDT5 live-cell NanoBRET target engagement assay; type: cell-based; settings: 2.5 nM CBH-004 tracer, 2 h
# Experimental: Donor and acceptor signals were measured in a PHERAstar FSX or FS plate reader and analyzed by GraphPad Prism (v.9 or v.10). […] Data were then normalized to DMSO.
# NUDT5 [3] = molecular target: T7, NUDT5 (Homo sapiens, UniProt Q9UKK9); test: NUDT5 catalytic assay (AMP-Glo); type: biochemical; settings: for NUDT5 IC50: supplementary CSV; for NUDT5 inhibition: concentrations of up to 50 μM
# Experimental: as §1
# endogenous NUDT5 = endogenous NUDT5 (Homo sapiens, UniProt Q9UKK9); test: Affinity pull-down with Western blot for NUDT5; type: binding; settings: affinity matrix, cell lysate
# Experimental: When reaching about 80% confluency, cells were harvested, washed with PBS, and frozen at −80 °C. Lysates were generated by adding 3× pellet volume of Buffer A (50 mM tris pH 7.5, 0.8% v/v NP-40, 5% v/v glycerol, 1.5 mM MgCl2, 100 mM NaCl, 25 mM NaF, 1 mM Na3VO4, 1 mM PMSF, 1 mM DTT, 10 μg/mL TLCK, 1 μg/mL Leupeptin, 1 μg/mL Aprotinin, 1 μg/mL soybean trypsin) supplemented with 1 μL/mL of benzonase. To facilitate lysis, crude lysate was drawn 10 times with a needle and incubated for 30 min on ice before clearing by centrifugation.
# Affinity matrices were washed 4 times with 1 mL Buffer A, and proteins were eluted 2× with 50 μL of 2× Laemmli buffer containing 25 mM DTT in PBS for 5 min at 95 °C.
# BT-474 cells = test: Cell viability assay (CellTiter-Glo); type: cell-based; settings: Homo sapiens, 72 h of incubation
# Experimental: BT-474 cells were cultivated in DMEM containing 10% FBS at 37 °C and 5% CO2. […] Cells were trypsinized, counted, and diluted to 25,000 cells/mL in culture medium. 40 μL of cell suspension was seeded to each well, and plates were sealed with a breathable film and incubated for 72 h. Cell viability was determined using the CellTiter-Glo reagent following the manufacturer’s instructions (Promega). Luminescence signals were measured in a PHERAstar FS or FSX and analyzed by GraphPad Prism (v.9 or v.10). Data were normalized to DMSO.
# [4] = molecular target: T2, purified human NUDT14 protein; test: biochemical
# NUDT5 [5] = molecular target: T7, NUDT5; test: biochemical; parameters: 6xHis tag followed by TEV site (N, cleaved yes); made in house; host or cells: Escherichia coli (DE3)
# NUDT15 = molecular target: T3, NUDT15; test: biochemical
# NUDT16 = NUDT16 (Homo sapiens, UniProt Q96DE0); test: biochemical
# Sequence of NUDT16 (Q96DE0 whole entry): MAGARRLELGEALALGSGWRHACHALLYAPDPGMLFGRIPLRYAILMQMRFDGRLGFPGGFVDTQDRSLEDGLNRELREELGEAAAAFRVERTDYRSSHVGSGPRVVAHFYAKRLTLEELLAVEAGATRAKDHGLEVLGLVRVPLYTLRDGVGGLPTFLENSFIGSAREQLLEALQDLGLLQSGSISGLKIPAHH
# NUDT7 = NUDT7 (Homo sapiens, UniProt P0C024); test: biochemical
# Sequence of NUDT7 (P0C024 whole entry): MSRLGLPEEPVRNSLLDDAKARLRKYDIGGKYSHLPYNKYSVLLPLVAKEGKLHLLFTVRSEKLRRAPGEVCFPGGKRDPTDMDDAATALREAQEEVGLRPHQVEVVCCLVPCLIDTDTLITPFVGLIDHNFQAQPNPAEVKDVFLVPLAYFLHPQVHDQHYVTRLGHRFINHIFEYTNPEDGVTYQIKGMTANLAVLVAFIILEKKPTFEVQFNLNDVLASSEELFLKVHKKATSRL
# NUDT16L1 = NUDT16L1 (Homo sapiens, UniProt Q9BRJ7); test: biochemical
# Sequence of NUDT16L1 (Q9BRJ7 whole entry): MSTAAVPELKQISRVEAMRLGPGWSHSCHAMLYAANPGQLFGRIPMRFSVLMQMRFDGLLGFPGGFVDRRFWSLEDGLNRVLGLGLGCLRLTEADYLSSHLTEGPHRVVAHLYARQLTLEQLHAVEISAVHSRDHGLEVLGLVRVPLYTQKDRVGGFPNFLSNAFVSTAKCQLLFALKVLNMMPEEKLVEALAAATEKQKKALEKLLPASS
# NUDT9 = molecular target: T4, NUDT9; test: biochemical
# NUDT18 = molecular target: T5, NUDT18; test: biochemical
# NUDT12 = NUDT12 (Homo sapiens, UniProt Q9BQG2); test: biochemical
# Sequence of NUDT12 (Q9BQG2 whole entry): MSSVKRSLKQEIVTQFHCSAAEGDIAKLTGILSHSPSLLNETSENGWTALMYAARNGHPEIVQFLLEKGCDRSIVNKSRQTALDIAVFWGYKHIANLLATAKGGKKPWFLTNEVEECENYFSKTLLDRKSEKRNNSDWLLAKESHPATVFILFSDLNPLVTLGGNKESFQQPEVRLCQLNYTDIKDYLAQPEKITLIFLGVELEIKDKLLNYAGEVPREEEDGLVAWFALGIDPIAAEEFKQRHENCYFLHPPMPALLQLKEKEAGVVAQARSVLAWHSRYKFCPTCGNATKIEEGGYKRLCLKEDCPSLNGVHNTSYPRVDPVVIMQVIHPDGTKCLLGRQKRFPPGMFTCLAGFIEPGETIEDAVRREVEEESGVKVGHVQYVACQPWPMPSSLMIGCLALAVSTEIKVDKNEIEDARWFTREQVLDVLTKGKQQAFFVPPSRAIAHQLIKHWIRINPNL
# NUDT1 = NUDT1 (Homo sapiens, UniProt P36639); test: biochemical
# NUDT17 = molecular target: T6, NUDT17; test: biochemical
# [6] = molecular target: the molecule itself; test: crystal structure; NUDT14 (20 mg/mL) cocrystallised with compound 9 at a molar ratio of 1:5; 0.2 M MgCl2, 0.1 M bis-tris pH 6.5, 25% PEG3350; sitting drop, 4 °C; dimer of chains A and B
# [7] = 1 nM NUDT14, 10 μM ADPr, 1 h, rt
# [8] = read-out: NUDT5 IC50, AMP-Glo, 1 nM NUDT5, 10 μM ADPr, 20 min, rt
molecule,measurement,setting,value
"Cn1nc(-c2ccc(Oc3ccccc3)cc2)c2c(N)ncnc21 [Compound 10, 1-Methyl-3-(4-phenoxyphenyl)-1H-pyrazolo[3,4-d]pyrimidin-4-amine]",IC50,recombinant human NUDT14; [7],263 ± 31 nM
"Cn1c(=O)c2c(nc(N3CCNCC3)n2Cc2nnc(-c3ccc(Cl)c(Cl)c3)o2)n(C)c1=O [Compound 6, TH5427]",NUDT14 stabilisation compared to DMSO,[1],does not stabilise NUDT14
same,EC50,[2],4 ± 1 nM
"C=CC(=O)N1CC=C(c2nn(C3CCN(C)CC3)c3ncnc(N)c23)CC1 [Compound 12, 1-(4-(4-Amino-1-(1-methylpiperidin-4-yl)-1H-pyrazolo[3,4-d]pyrimidin-3-yl)-3,6-dihydropyridin-1(2H)-yl)prop-2-en-1-one]",IC50,NUDT5 [3]; [8],> 50000 nM
same,NUDT5 IC50,NUDT5 [3]; AMP-Glo,not active
same,IC50,recombinant human NUDT14; [7],> 50000 nM
same,NUDT14 IC50,recombinant human NUDT14; supplementary CSV,not active
"CC#CC(=O)N1CCC[C@H]1c1nc(-c2ccc(C(=O)Nc3ccccn3)cc2)c2c(N)nccn12 [Compound 2, acalabrutinib, reference compound]",NUDT5 inhibition,NUDT5 [3],did not show any inhibition
same,NUDT5 IC50,NUDT5 [3]; AMP-Glo,not active
"Cn1c(=O)c2c(nc(N3CCN(CCCCN)CC3)n2Cc2nnc(-c3ccc(Cl)c(Cl)c3)o2)n(C)c1=O.O=C(O)C(F)(F)F [Compound 7, 4-(4-(7-((5-(3,4-Dichlorophenyl)-1,3,4-oxadiazol-2-yl)methyl)-1,3-dimethyl-2,6-dioxo-2,3,6,7-tetrahydro-1H-purin-8-yl)piperazin-1-yl)butan-1-aminium Trifluoroacetate]","binding to endogenous NUDT5 (pull-down, Western blot)",endogenous NUDT5,retained binding
"C=CC(=O)N1CCC=C(c2nn(C3CCN(C)CC3)c3ncnc(N)c23)C1 [Compound 13, 1-(5-(4-Amino-1-(1-methylpiperidin-4-yl)-1H-pyrazolo[3,4-d]pyrimidin-3-yl)-3,6-dihydropyridin-1(2H)-yl)prop-2-en-1-one]",IC50,NUDT5 [3],> 50000 nM
same,NUDT5 IC50,NUDT5 [3]; AMP-Glo,not active
same,IC50,recombinant human NUDT14; [7],3720 ± 190 nM
"C=CC(=O)N1CCC[C@@H](n2nc(-c3ccc(Oc4ccccc4)cc3)c3c(N)ncnc32)C1 [Compound 1, ibrutinib, reference compound]",IC50,NUDT5 [3]; [8],837 ± 329 nM
same,IC50,BT-474 cells,27 ± 11 nM
same,IC50,recombinant human NUDT14; [7],990 ± 110 nM
"Nc1ncnc2[nH]nc(-c3ccc(Oc4ccccc4)cc3)c12 [Compound 11, 3-(4-Phenoxyphenyl)-1H-pyrazolo[3,4-d]pyrimidin-4-amine]",IC50,recombinant human NUDT14; [7],519 ± 84 nM
"C=CC(=O)N1CCC[C@@H](n2nc(-c3ccc(Oc4ccccc4)cc3)c3c(N)ncnc32)C1 [Compound 1, ibrutinib]",Kd,[4],1900 ± 500 nM
same,Kd,NUDT5 [5],209 ± 62 nM
same,Kd,NUDT15,> 100000 nM
same,Kd,NUDT16,> 100000 nM
same,Kd,NUDT7,> 100000 nM
same,Kd,NUDT16L1,> 100000 nM
same,Kd,NUDT9,> 100000 nM
same,Kd,NUDT18,> 100000 nM
same,Kd,NUDT12,> 100000 nM
same,Kd,NUDT1,3500 ± 280 nM
same,Kd,NUDT17,> 100000 nM
"C=CC(=O)N1CCC(c2nn(C3CCN(C)CC3)c3ncnc(N)c23)CC1 [Compound 15, 1-(4-(4-Amino-1-(1-methylpiperidin-4-yl)-1H-pyrazolo[3,4-d]pyrimidin-3-yl)piperidin-1-yl)prop-2-en-1-one]",IC50,NUDT5 [3],> 50000 nM
same,NUDT5 IC50,NUDT5 [3]; AMP-Glo,not active
same,IC50,recombinant human NUDT14; [7],> 50000 nM
same,NUDT14 IC50,recombinant human NUDT14; [7],inactive
"CC#CC(=O)N[C@H]1CCCN(c2c(F)cc(C(N)=O)c3[nH]c(C)c(C)c23)C1 [Compound 3, branebrutinib, reference compound]",NUDT5 inhibition,NUDT5 [3],did not show any inhibition
same,NUDT5 IC50,NUDT5 [3]; AMP-Glo,not active
"C=CC(=O)NCc1ccc(-c2nn(C3CCN(C)CC3)c3ncnc(N)c23)cc1 [Compound 14, N-(4-(4-Amino-1-(1-methylpiperidin-4-yl)-1H-pyrazolo[3,4-d]pyrimidin-3-yl)benzyl)acrylamide]",IC50,recombinant human NUDT14; [7],1640 ± 140 nM
B1,stoichiometry N,[6],2
